Measurements from the NIST ThermoML archive (doi:10.1016/j.jct.2013.10.039).

Conditions: Liquid, Closed cell (Static) method

OCc1ccco1 [2-hydroxymethylfuran]
Conditions | vapor or sublimation pressure [kPa]
273.11 K | 0.009
283.08 K | 0.022
293.16 K | 0.053
303.09 K | 0.115
313.15 K | 0.242
323.15 K | 0.475
323.16 K | 0.471
331.87 K | 0.815
333.15 K | 0.89
333.17 K | 0.882
341.85 K | 1.479
343.15 K | 1.597
343.19 K | 1.611
351.81 K | 2.577
353.15 K | 2.755
353.2 K | 2.787
362.09 K | 4.368
363.15 K | 4.588
363.2 K | 4.649
372.04 K | 7.065
373.15 K | 7.398
382.09 K | 11.09
383.15 K | 11.59
392.15 K | 17.1
393.15 K | 17.68
402.18 K | 25.11
412.11 K | 36.53

CC(=O)CC(C)C [4-methylpentan-2-one]
Conditions | vapor or sublimation pressure [kPa]
313.15 K | 5.882
323.15 K | 9.417
331.98 K | 13.85
333.15 K | 14.56
341.81 K | 20.72
343.15 K | 21.82
351.81 K | 30.29
353.15 K | 31.8
362.04 K | 43.51
363.15 K | 45.19
372.03 K | 60.56
373.15 K | 62.78
382.04 K | 82.62
383.15 K | 85.44
392.07 K | 110.74
393.15 K | 114.12

Cc1ccc(C)o1 [2,5-dimethylfuran]
Conditions | vapor or sublimation pressure [kPa]
313.15 K | 13.94
323.15 K | 21.54
333.15 K | 32.2
343.15 K | 46.74
353.15 K | 66.08
363.15 K | 91.23
373.15 K | 123.28
383.15 K | 163.43
393.15 K | 212.88
